According to paper PMC10261104, “Regioselective stilbene O-methylations in Saccharinae grasses” (Nature Communications, 2023):

How the values were obtained:
[1] = biological target: T1, SbSOMT (stilbene O-methyltransferase) (Sorghum bicolor, UniProt A0A1B6PFV1); experiment: ITC; type: binding
T1 construct: gene SORBI_3007G059100; residues 2–377

[2] = biological target: T2, SbCOMT (caffeic acid O-methyltransferase) (Sorghum bicolor, UniProt C5YH12); experiment: ITC; type: binding
T2 construct: gene SORBI_3007G047300; residues 2–362
T2 sequence (C5YH12 2-362): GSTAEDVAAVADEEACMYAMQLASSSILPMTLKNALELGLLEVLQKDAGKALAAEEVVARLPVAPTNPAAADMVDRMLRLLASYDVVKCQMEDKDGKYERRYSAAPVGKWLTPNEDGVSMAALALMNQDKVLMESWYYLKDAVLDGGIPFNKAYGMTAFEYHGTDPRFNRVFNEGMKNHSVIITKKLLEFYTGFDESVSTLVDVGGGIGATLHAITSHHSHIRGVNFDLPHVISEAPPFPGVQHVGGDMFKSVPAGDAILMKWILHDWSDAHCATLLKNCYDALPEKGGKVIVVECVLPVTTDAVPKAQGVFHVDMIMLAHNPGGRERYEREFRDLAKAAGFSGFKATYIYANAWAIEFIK

[3] = biological target: T2, SbCOMT (caffeic acid O-methyltransferase); experiment: ITC; […]ʹ-O-methylation enzyme assay; type: binding
[4] = biological target: T2, SbCOMT (caffeic acid O-methyltransferase); experiment: ITC; enzyme kinetics (Km […]); type: binding
[5] = biological target: T1, SbSOMT (stilbene O-methyltransferase); experiment: ITC; X-ray crystal structure ([…] Å, ternary complex); enzyme kinetics (Km […]); type: binding
[6] = biological target: T1, SbSOMT (stilbene O-methyltransferase); experiment: ITC; X-ray crystal structure ([…] Å, ternary complex); type: binding
[7] = biological target: T1, SbSOMT (stilbene O-methyltransferase); experiment: ITC; X-ray crystal structures (binary, and ternary with β-NAD at […] Å); methylation assay; type: binding
[8] = biological target: Sorghum bicolor stilbene O-methyltransferase (SbSOMT) (Sorghum bicolor); experiment: crystal structure; SbSOMT co-crystallised with resveratrol, pinostilbene or pterostilbene, with or without β-NAD; sitting drop vapor diffusion, 18 °C

T1 sequence (A0A1B6PFV1 2-377): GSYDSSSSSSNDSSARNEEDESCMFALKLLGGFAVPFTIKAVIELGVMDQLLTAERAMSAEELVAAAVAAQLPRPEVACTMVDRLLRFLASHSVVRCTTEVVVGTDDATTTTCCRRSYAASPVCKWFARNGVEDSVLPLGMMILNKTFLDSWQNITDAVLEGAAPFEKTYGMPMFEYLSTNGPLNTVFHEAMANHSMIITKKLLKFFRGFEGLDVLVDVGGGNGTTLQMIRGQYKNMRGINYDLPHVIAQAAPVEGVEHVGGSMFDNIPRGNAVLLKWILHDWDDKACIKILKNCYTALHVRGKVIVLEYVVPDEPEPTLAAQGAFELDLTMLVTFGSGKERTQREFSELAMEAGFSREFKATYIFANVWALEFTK

Compound: C[S+](CC[C@H](N)C(=O)[O-])C[C@H]1O[C@@H](n2cnc3c(N)ncnc32)[C@H](O)[C@@H]1O (stereo partly shown) [SAM]
- Kd [1]: 90 µM
- Kd ([2]; read-out: SbCOMT): 13 µM

Compound: Oc1cc(O)cc(/C=C/c2ccc(O)c(O)c2)c1 [piceatannol]
- Kd [3]: 1.26 µM

Compound: COc1cc(O)cc(/C=C/c2ccc(O)cc2)c1 [pinostilbene]
- Kd [4]: 1.79 µM
- Kd [5]: 2.86 µM

Compound: COc1cc(/C=C/c2ccc(O)cc2)cc(OC)c1 [pterostilbene]
- Kd ([2]; read-out: SbCOMT): 3.99 µM
- Kd [6]: 11.2 µM

Compound: Oc1ccc(/C=C/c2cc(O)cc(O)c2)cc1 [resveratrol]
- Kd [7]: 4.69 µM
- Kd [2]: 1.55 µM

Compound: Sorghum bicolor stilbene O-methyltransferase (SbSOMT) (enzyme)
- stoichiometry N [8]: 2
